Assays:
[1] = from cited literature (Storlien et al., Brindley et al., Carr et al., Duhault et al., Pestell et al.); cited from earlier work
rat âgé = test: Chronic treatment of the aged rat (insulin resistance, hyperinsulinaemia, raised blood pressure): blood pressure; format: in vivo
Protocol: 2- Etude du traitement chronique du rat âgé
Au cours du vieillissement, une insulino-résistance apparaît, accompagnée d'une hyperinsulinémie et d'une élévation de la pression artérielle (cf tableau 1 ci-après).
Le traitement par la d-fenfluramine à la dose de 2,5 mg/kg 2 fois par jour pendant 3 semaines, diminue la pression artérielle du rat âgé de 12.10² Pa sans modifier celle du rat jeune.

réactivité vasculaire = test: Vascular reactivity after chronic treatment of the aged rat: maximum contraction to serotonin and ADP; format: in vivo; conditions: 12-month rats treated with d-fenfluramine
From the text: Cet effet est relié à une normalisation de la réactivité vasculaire, en particulier à la sérotonine et à l'ADP (cf tableau 2 ci-après).

SMILES: CCNC(C)Cc1cccc(C(F)(F)F)c1 (racemic) [dl fenfluramine]
- insulino-résistance et hyperinsulinémie basale [1]: capables de réduire l'insulino-résistance et l'hyperinsulinémie basale

SMILES: CCN[C@@H](C)Cc1cccc(C(F)(F)F)c1 [d-fenfluramine]
- pression artérielle du rat jeune (rat âgé; young rat, 2,5 mg/kg twice daily for 3 weeks): sans modifier
- Maximum de contraction Sérotonine (réactivité vasculaire; expressed relative to KCl = 100 % contraction): 145%
- Maximum de contraction ADP (réactivité vasculaire; expressed relative to phenylephrine = 100 % contraction): 66%

SMILES: CC(Cc1cccc(C(F)(F)F)c1)NCCOC(=O)c1ccccc1 (centres unmarked) [benfluorex]
- Blood pressure and vascular reactivity of the aged rat (results compared with d-fenfluramine) (rat âgé; 50 mg/kg, 5 times per day): résultats analogues

— patent EP0545805A1, “Use of D-fenfluramine and fenfluramine derivatives in the treatment of hypertension in insulin-resistant patients” (ADIR ET COMPAGNIE, priority 1991, dated 1993)
